# Target: T1, POLγ W748S + E1143G (Homo sapiens, UniProt P54098, E1143G/W748S)
# T1 sequence (P54098 1-1239 W748S/E1143G): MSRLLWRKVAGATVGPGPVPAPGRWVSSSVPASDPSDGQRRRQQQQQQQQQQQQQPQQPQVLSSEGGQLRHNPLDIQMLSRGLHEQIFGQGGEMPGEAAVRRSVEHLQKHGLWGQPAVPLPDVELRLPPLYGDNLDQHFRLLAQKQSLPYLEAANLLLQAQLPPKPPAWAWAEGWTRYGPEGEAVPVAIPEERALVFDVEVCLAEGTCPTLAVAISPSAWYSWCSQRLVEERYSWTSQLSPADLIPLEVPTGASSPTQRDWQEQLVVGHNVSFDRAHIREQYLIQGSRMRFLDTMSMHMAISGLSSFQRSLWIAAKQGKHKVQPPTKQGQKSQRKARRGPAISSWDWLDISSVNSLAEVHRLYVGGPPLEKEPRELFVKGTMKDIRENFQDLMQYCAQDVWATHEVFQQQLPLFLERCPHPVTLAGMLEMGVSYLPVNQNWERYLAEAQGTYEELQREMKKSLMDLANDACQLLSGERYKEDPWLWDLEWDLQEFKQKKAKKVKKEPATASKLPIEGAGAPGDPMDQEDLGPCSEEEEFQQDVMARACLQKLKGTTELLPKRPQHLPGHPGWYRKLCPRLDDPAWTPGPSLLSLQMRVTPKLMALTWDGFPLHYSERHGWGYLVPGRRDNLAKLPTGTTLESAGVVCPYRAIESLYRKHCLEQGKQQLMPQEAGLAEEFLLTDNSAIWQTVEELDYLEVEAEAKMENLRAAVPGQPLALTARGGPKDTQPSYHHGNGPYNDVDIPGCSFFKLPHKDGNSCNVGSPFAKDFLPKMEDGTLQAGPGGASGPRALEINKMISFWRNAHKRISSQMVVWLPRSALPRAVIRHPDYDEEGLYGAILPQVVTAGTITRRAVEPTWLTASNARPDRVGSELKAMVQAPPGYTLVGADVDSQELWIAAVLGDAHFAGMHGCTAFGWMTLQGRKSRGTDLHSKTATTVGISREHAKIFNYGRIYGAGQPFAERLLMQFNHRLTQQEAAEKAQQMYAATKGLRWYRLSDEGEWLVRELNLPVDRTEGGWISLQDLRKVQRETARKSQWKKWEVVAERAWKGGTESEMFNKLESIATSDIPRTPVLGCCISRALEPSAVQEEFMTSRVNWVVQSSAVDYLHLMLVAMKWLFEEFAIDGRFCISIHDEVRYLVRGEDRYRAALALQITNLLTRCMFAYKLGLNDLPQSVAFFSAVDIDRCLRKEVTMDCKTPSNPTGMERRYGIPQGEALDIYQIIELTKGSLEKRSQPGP
# T1 sequence (Q9UHN1 1-485 partner): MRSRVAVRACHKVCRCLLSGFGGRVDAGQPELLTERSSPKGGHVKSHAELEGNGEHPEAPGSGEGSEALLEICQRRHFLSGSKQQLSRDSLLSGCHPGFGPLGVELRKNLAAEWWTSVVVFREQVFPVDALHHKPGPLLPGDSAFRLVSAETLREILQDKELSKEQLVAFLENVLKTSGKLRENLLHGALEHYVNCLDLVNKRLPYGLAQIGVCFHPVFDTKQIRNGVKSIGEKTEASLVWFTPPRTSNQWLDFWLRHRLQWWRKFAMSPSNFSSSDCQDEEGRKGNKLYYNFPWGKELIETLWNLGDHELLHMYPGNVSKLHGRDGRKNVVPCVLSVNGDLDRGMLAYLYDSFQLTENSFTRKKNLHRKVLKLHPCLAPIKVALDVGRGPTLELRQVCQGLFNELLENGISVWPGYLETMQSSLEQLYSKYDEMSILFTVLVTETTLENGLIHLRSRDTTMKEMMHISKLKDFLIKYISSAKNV
# Test: DNA polymerization assay, W748S + E1143G mutant
# Assay type: biochemical
# Details: stimulation of polymerase activity, primed M13mp18 ssDNA, 37° C. 2 hours
# Description: DNA Polymerization Assay to Monitor Effects on Human Wildtype POLγ and Four Disease-Causing Mutant Variants of Human POLγ.
# The ability of small molecules to stimulate the polymerase activity of POLγ was analyzed in a quantitative fluorescence SYBR Green I assay with fluorescence intensity (FI) readout.
# In the presence of dNTPs, wild type human POLγ and mutant derivatives thereof were incubated with single-stranded, circular M13mp18 ssDNA hybridized to a short DNA oligonucleotide that functions as a primer for initiation of DNA synthesis. POLγ and mutant derivatives thereof will extend the primer and use the M13mp18 molecule as a template to synthesize long stretches of double-stranded DNA. SYBR Green I, which is a double-stranded DNA-binding dye, was used to quantify formation of double-stranded DNA in the reaction. When bound to double-stranded DNA, SYBR Green I fluorescence increases by up to 100-fold.
# The assay was performed in the 384-well plate format. Upon addition of compounds, changes in double-stranded DNA synthesis activity can be monitored by following effects on fluorescent intensity.
# The reactions also contained the accessory POLγB subunit, and the human mitochondrial single-stranded DNA binding protein (mtSSB).
# The DNA template mixture used in the assay contained 0.5 nM primed M13 mp18 ssDNA, 400 nM mtSSB, 0.1 mM Tris-HCl (pH 8.0), 0.1 mM dNTP, 10 mM MgCl2, 0.1 mg/mL BSA, 1 mM TCEP solution, and 0.02% Triton X-100. The DNA template mixture for the wild type protein contained either 100 μM dNTP, 1 μM dNTP, or 0.1 μM dNTP, designated in Table 2 as 100 μM, 1 μM, and 0.1 μM, respectfully.
# Microplates with compounds (0.1 μL in each well) to be tested in the assay were prepared from 10 mM compound stocks in 100% DMSO, and equal amounts of DMSO without any compound were added to positive and negative control wells.
# The protein mixture was dispensed (5 μL into each well) into compound plates and incubated at 37° C. for 15 minutes. After incubation, 5 μL of the DNA template mixture was dispensed into each well. The plates were then incubated at 37° C. for 2 hours.
# During incubation, a combined stop buffer and detection reagent solution was prepared. The buffer contained 25 mM EDTA (pH 8.0), 0.02% Triton X-100, and SYBR Green I [Invitrogen] diluted 10,000× (for fluorescent readout). EDTA will stop the enzymatic reaction by chelating magnesium ions.
row,AC50,SMILES
1,> 10 µM,"Cc1cc(S(=O)(=O)Nc2csc(C(=O)N(CC(N)=O)C3CCCCC3)n2)c(C)cc1Cl [Example 179, N-(2-amino-2-oxoethyl)-4-((4-chloro-2,5-dimethylphenyl)sulfonamido)-N-cyclohexylthiazole-2-carboxamide]"
2,> 10 µM,"Cc1cc(S(=O)(=O)Nc2nc(-c3ccccc3)n(C)n2)c(C)cc1Cl [Example 180, 4-chloro-2,5-dimethyl-N-(1-methyl-5-phenyl-1H-1,2,4-triazol-3-yl)benzenesulfonamide]"
3,> 10 µM,"Cc1cc(S(=O)(=O)Nc2csc(-c3ccn(C)n3)n2)c(C)cc1Cl [Example 181, 4-chloro-2,5-dimethyl-N-(2-(1-methyl-1H-pyrazol-3-yl)thiazol-4-yl)benzenesulfonamide]"
4,0.7 µM,"Cc1cc(S(=O)(=O)Nc2csc(-c3cnn(C)c3)n2)c(C)cc1Cl [Example 183, 4-chloro-2,5-dimethyl-N-(2-(1-methyl-1H-pyrazol-4-yl)thiazol-4-yl)benzenesulfonamide]"

# Reference: patent US20260138961A1, “MODULATORS OF MITOCHONDRIAL DNA REPLICATION” (Pretzel Therapeutics, Inc., priority 2022, published 2026)
